# pIC50: −log10 of the molar value. Non-standard residues stand in square brackets, D forms with d. Residues, ends and D or L forms follow the SMILES beside them. Dip = N[C@H](C(=O)O)C(c1ccccc1)c1ccccc1
# Legend:
# A375 cells [1] = assay: Release of ATP, luciferase assay of supernatant; assay type: cell-based, human; conditions: concentration-dependent
# Method: The supernatant of LTX-315-treated A375 cells was analyzed using an Enliten ATP luciferase assay kit (Promega, USA). Cells were then seeded as with an ROS assay, and treated with LTX-315 in different incubation times, from 1 to 15 minutes with two parallels, which was then conducted three times. Negative controls were untreated A375 cells exposed to serum-free media alone. Samples were diluted at 1:50 and 1:100, and analyzed with a Luminoscan RT luminometer according to the manufacturer's protocol.
# [2] = system: murine A20 B cell lymphoma cells; assay: Re-challenge with A20 cells in mice with complete tumour regression; assay type: in vivo
# Method: Methods: Female Balb-c mice (n=4), previously treated with LTX-315, 1 mg) or (n=9); previously treated with LTX-315 0.5 or 1 mg) were re-inoculated (s.c. in the abdominal area) with either murine A20 B cell lymphoma cells or CT26WT colon carcinoma cells (5 million) respectively 6 weeks following initial treatment with LTX-315. Tumour growth was monitored for up to 36 days following re-inoculation.
# A375 cells [3] = assay: Confocal microscopy, fluorescence-labeled peptide internalization; assay type: cell-based, human; conditions: 1.5 and 3 μM
# Method: Fixed cells, fluorescence-labeled peptide-Subconfluential A375 cells were seeded at 8,000 cells/well as above, and transfected on the second day using the Lipofectamine LTX with Plus transfection reagents (Invitrogen) following the manufacturer's protocol. The mitochondria were labeled using the pDsRed2-Mito, and the nucleus was labeled using the GFP-Histon2B plasmid (Imaging Platform, University of Tromsø). A day after transfection, cells were washed twice with serum-free RPMI, and treated at different concentration and incubation periods with LTX-315 Pacific Blue or LTX-328 Pacific Blue.
# Control cells were treated with unlabeled LTX-315 and also with serum-free RPMI only. After incubation, cells were fixed with 4% paraformaldehyde in PBS, and the wells were covered with Prolong Gold antifade (Invitrogen). Cells were further analyzed by use of a Leica TCS SP5 confocal microscope, with a […] objective. Pacific Blue, GFP and Ds Red were excited using UV, with 488 and 561 lasers, and fluorescence channels were sequentially detected using the following band passes: UV: 420-480 nm (with attenuation), 488: 501-550 nm and 561: 576-676 nm.
# A375 melanoma cells = assay: Live cell imaging, bright field confocal microscopy; assay type: cell-based, human; conditions: at an IC-50 value, majority of the cells
# Method: Live cell imaging with unlabeled cells-A375 cells were seeded at 10,000 cells/well in a complete media in Nunc Lab-Tec 8-wells chambered covered glass (Sigma) precoated with 25 μg/ml human fibronectin (Sigma) that were allowed to adhere overnight. Cells were washed twice with a serum-free RPMI, treated with peptide dissolved in RPMI and investigated using Bright on a Leica TCS SP5 confocal microscope, with a 63X/1.2W objective. The microscope was equipped with an incubation chamber with CO2 and temperature control.
# K5627/Gleevec = assay type: cell-based, human; conditions: resistant
# Method: Tumor cells were grown as adherent monolayers or as suspensions at 37° C. in a humidified atmosphere (5% CO2, 95% air). The culture medium was RPMI 1640 containing 2 mM L-glutamine (Lonza, Belgium) and supplemented with 10% fetal bovine serum (FBS, Lonza). For experimental use, the adherent cells were detached from the culture flask by a 5-minute treatment with trypsin-versene (Lonza), diluted in Hanks' medium without calcium or magnesium (Lonza) and neutralized by addition of complete culture medium. Cells were counted in a hemocytometer and their viability was assessed by 0.25% trypan blue exclusion. […]
# Three independent experiments were performed, each concentration being tested in quadruplicate. […] At the end of treatments, the cytotoxic activity was evaluated by a MTS assay (see § 3.3). […]
# At the end of the cells treatment, 40 μl of a 0.22 μm filtered freshly combined solution of MTS (20 ml at 2 mg/ml, Ref G1111, Batch 235897, Exp 03/2009, Promega, Charbonnières, France) and PMS (1 ml at 0.92 mg/ml, Ref P9625, Batch 065K0961, Sigma) in Dulbecco's Phosphate Buffered Saline (DPBS, Ref 17-513Q, Batch 6MB0152, Cambrex), were added in each well. […] Absorbency (OD) were measured at 490 nm in each well using VICTOR^3TM 1420 multilabeled counter (Wallac, PerkinElmer, Courtaboeuf, France). […]
# human red blood cells = assay: Haemolytic activity in vitro; assay type: cell-based; conditions: 1 h, 37° C.
# Method: Freshly collected human blood was centrifuged at 1500 rpm for 10 minutes in order to isolate the red blood cells. The red blood cells (RBC) were washed three times with PBS [35 mM phosphate buffer with 150 mM NaCl, pH 7.4] by centrifugation at 1500 rpm for 10 minutes, and adjusted to 10% haematocrit with PBS. LTX-315 solutions were added to give a final concentration range of the peptide from 1200 μg/ml to 1 μg/ml and an RBC concentration of 1%. The resulting suspension was incubated with agitation for one hour at 37° C. After incubation the suspension was centrifuged at 4000 rpm for 5 minutes, and the released haemoglobin were monitored by measuring the absorbance of the supernatant at 405 nm. PBS was used as negative control and assumed to cause no haemolysis. 0.1% Triton was used as positive control and assumed to cause complete haemolysis.
# Released haemoglobin was monitored by measuring the absorbance of the supernatant at 405 nm, and percent haemolysis was calculated by the equation: […]
# LTX-315 concentration corresponding to 50% haemolysis (ECs) was determined from a dose-response curve.
compound,measurement,setting,value
"NCCCC[C@H](NC(=O)[C@@H](NC(=O)[C@H](Cc1c[nH]c2ccccc12)NC(=O)[C@H](CCCCN)NC(=O)[C@H](CCCCN)NC(=O)[C@H](Cc1c[nH]c2ccccc12)NC(=O)[C@H](Cc1c[nH]c2ccccc12)NC(=O)[C@H](CCCCN)NC(=O)[C@@H](N)CCCCN)C(c1ccccc1)c1ccccc1)C(N)=O [LTX-315, K-K-W-W-K-K-W-Dip-K-NH2] (H-KKWWKKW[Dip]K-NH2)",extracellular ATP release,A375 cells [1],ATP was detected in the supernatant as early as after 5 minutes of treatment
same,tumour growth after re-inoculation compared with control animals,"[2]; 4 mice previously treated with LTX-315 1 mg, re-inoculated 6 weeks later, P<0.006",Significant inhibition
same,mice with complete tumour regression after re-inoculation,[2]; of 4 re-inoculated mice,3 mice
same,animals with relapse after re-inoculation,"[2]; of 4 re-inoculated mice, 3 weeks later",1 animal
same,internalization of Pacific Blue-labeled peptide,A375 cells [3],showed an accumulation around the mitochondria after 30 minutes of incubation but was not detected in the cell nucleus
same,time to cell collapse with extrusion of cytoplasmic content,A375 melanoma cells,15 to 60 min
same,pIC50,K5627/Gleevec,5.53
same,Mean cell death (%),human red blood cells; LTX-315 1 μg/ml,0.0%
same,Mean cell death (%),human red blood cells; LTX-315 10 μg/ml,0.6%
same,Mean cell death (%),human red blood cells; LTX-315 50 μg/ml,1.6%
same,Mean cell death (%),human red blood cells; LTX-315 100 μg/ml,3.6%

# — patent publication US12239686B2, “Immune checkpoint inhibitor combinations” (LYTIX BIOPHARMA AS, priority 2014, dated 2025)
